Assay: Solubility of hydroxy-terminated TAT derivatives in water/EtOH (1:1)
Assay type: physicochemical
Description: A sample of each of the examples was then subjected to further characterization and testing, including by NMR, along with pure TAT. The results are summarized in Table 1, which illustrates, among other things, that the increased amounts of DEA improved the solubility: […]

- Solubility in water/EtOH (1:1) @ 25% w/w: insoluble
SMILES: C=CC(=O)N1CN(C(=O)C=C)CN(C(=O)C=C)C1 [Parent Sample (TAT), 1,3,5-triacryloyl-hexahydro-1,3,5-triazine]
